Assay results published in patent US20260139003A1, “PEPTIDE WITH ACTIVITY OF PROMOTING HAIR GROWTH AND INHIBITING HAIR LOSS AND USE THEREOF” (CAREGEN CO., LTD., priority 2022, published 2026).
Where no end group is shown, it is not given here.

Tests used:
Akt = Akt phosphorylation in HHFDPCs (Western blot); format: cell-based, human; settings: 500 nM, 5 μM, and 50 μM, 24 hours, FIG. 2
Protocol: (§1) The effect of the peptide prepared in Preparation Example 1 above on the activation of proliferation-related signaling molecules in human hair follicle dermal papilla cells (HHFDPCs) was confirmed by Western blot method.
(§2) HHFDPCs were seeded in a 6-well cell culture plate at a density of 4×10^5 cells/well and cultured for 24 hours under mesenchymal stem cell complete media conditions. Then, the medium was replaced with serum-free mesenchymal stem cell medium and cultured for additional 24 hours. The cultured cell culture was treated with the peptide prepared in Preparation Example 1 above at 500 nM, 5 μM, and 50 μM, respectively, 1 μM of Minoxidil (MNX) was treated to serve as a positive control, and not treated with anything to serve as a negative control (con), and the cultures treated with these materials were cultured at 37° C. for additional 24 hours. After washing each culture with PBS, the cells were lysed by treatment with lysis buffer to obtain a cell lysate. Equal amounts of protein samples were prepared by BCA quantification of cell lysates. The prepared protein samples were subjected to electrophoresis using 10% SDS-PAGE. […] The resultant was washed 3 times for 15 minutes each with 0.1% PBS-T (0.1% Tween-20 in PBS), treated with ECL solution (GE Healthcare, USA), and detected with a film.

FOXN1 = FOXN1 expression in HHGMCs (RT-PCR); format: cell-based, human; settings: 500 nM, 5 μM, and 50 μM, 24 hours, FIG. 7
Protocol: (§3) The effect of the peptide prepared in Preparation Example 1 above on the activation of human hair germinal matrix cells (HHGMCs) was confirmed by measuring the expression of MSX2, Homeobox C13 (HOXC13), and Forkhead Box N1 (FOXN1), which are transcription factors related to cell activation.
(§4) HHGMCs were seeded in a 6-well cell culture plate at a density of 4×10^5 cells/well and cultured for 24 hours under mesenchymal stem cell complete media conditions. Then, the medium was replaced with serum free mesenchymal stem cell medium and cultured for additional 24 hours. The cultured cell culture was treated with 500 nM, 5 μM, and 50 μM of the peptide prepared in Preparation Example 1 above, respectively, and treated with 100 nM of epidermal growth factor (EGF) as a positive control, and negative when not treated with anything to serve as a negative control (con), and these cultures were cultured at 37° C. for 24 hours. After washing each culture with PBS, RNA was isolated by treatment with 300 μL of eaay blue (Intron, South Korea). The isolated RNA was quantified using Nano drop, and then subjected to cDNA synthesis using a cDNA synthesis kit (Enzynomics, South Korea). […] The PCR reaction product was electrophoresed on a 1.5% agarose gel, and the bands were detected using the Bio-Rad Gel Image System.

[1] = test system: extracellular-regulated kinase (ERK); assay: ERK phosphorylation in HHFDPCs (Western blot); format: cell-based, human; settings: 500 nM, 5 μM, and 50 μM, 24 hours, FIG. 2
Protocol: as §1, §2

Keratin 5 = Keratin 5 gene expression in HHORSCs (RT-PCR); format: cell-based, human; settings: 500 nM, 5 μM, and 50 μM, 24 hours, FIG. 6
Protocol: (§5) The effect of the peptide prepared in Preparation Example 1 above on the activation of human hair outer root sheath cells (HHORSCs) was confirmed by measuring the gene expression of cytokeratin proteins.
(§6) HHORSCs were seeded in a 96-well cell culture plate at a density of 4×10^3 cells/well and cultured for 24 hours under mesenchymal stem cell complete media conditions. Then, the medium was replaced with serum free mesenchymal stem cell medium and cultured for additional 24 hours. The cultured cell culture was treated with 500 nM, 5 μM, and 50 μM of the peptide prepared in Preparation Example 1 above, respectively, and treated with 100 nM of epidermal growth factor (EGF) as a positive control, and negative when not treated with anything to serve as a negative control (con), and these cultures were cultured at 37° C. for 24 hours. After washing each culture with PBS, RNA was isolated by treatment with 300 μL of eaay blue (Intron, South Korea). The isolated RNA was quantified using Nano drop, and then subjected to cDNA synthesis using a cDNA synthesis kit (Enzynomics, South Korea). Then, a PCR reaction was performed using the primers shown in Table 3 below and a PCR premix (Enzynomics, South Korea). The PCR reaction product was electrophoresed on a 1.5% agarose gel, and the bands were detected using the Bio-Rad Gel Image System.

MSX2 = MSX2 expression in HHGMCs (RT-PCR); format: cell-based, human; settings: 500 nM, 5 μM, and 50 μM, 24 hours, FIG. 7
Protocol: as §3, §4

beta-catenin = assay: Activation of beta-catenin in HHFDPCs (nuclear protein Western blot); format: cell-based, human; settings: 500 nM, 5 μM, and 50 μM, 24 hours, nuclear proteins, FIG. 3
Protocol: The effect of the peptide prepared in Preparation Example 1 above on the activation of beta-catenin in human hair follicle dermal papilla cells (HHFDPCs) was confirmed by Western blot method.
HHFDPCs were seeded in a 6-well cell culture plate at a density of 4×10^5 cells/well and cultured for 24 hours under mesenchymal stem cell complete media conditions. Then, the medium was replaced with serum-free mesenchymal stem cell medium and cultured for additional 24 hours. The cultured cell culture was treated with the peptide prepared in Preparation Example 1 above at 500 nM, 5 μM, and 50 μM, respectively, and treated with 10 ng/mL of rhWnt-3a (recombinant human Wnt-3a protein, R&D systems (MN, USA) to serve as a positive control, and not treated with anything to serve as a negative control (con). The cultures treated with these materials were incubated at 37° C. for additional 24 hours. After washing each culture with PBS, nuclear proteins were isolated using a nuclear protein extraction kit (Thermo scientific, USA), and an equal amount of protein sample was prepared by BCA quantification. The prepared protein samples were subjected to electrophoresis using 10% SDS-PAGE. […] The resultant was washed 3 times for 15 minutes each with 0.1% PBS-T (0.1% Tween-20 in PBS), treated with ECL solution (GE Healthcare, USA), and detected with a film.

Keratin 19 = Keratin 19 gene expression in HHORSCs (RT-PCR); format: cell-based, human; settings: 500 nM, 5 μM, and 50 μM, 24 hours, FIG. 6
Protocol: as §5, §6

[2] = test system: human hair follicle dermal papilla cells (HHFDPCs); assay: Proliferation of HHFDPCs (MTT); format: cell-based; settings: 500 nM, 5 μM, and 50 μM, 72 hours, absorbance 540 nm, FIG. 1
Protocol: The effect of the peptide prepared in Preparation Example 1 above on the proliferation of human hair follicle dermal papilla cells (HHFDPCs) was tested.
HHFDPCs were seeded in a 96-well cell culture plate at a density of 4×10^3 cells/well and cultured for 24 hours under mesenchymal stem cell complete media conditions. Then, the medium was replaced with serum-free mesenchymal stem cell medium and cultured for additional 24 hours. The cultured cell culture was treated with the peptide prepared in Preparation Example 1 above at 500 nM, 5 μM, and 50 μM, respectively, treated with 1 μM VEGF to serve as a positive control, and not treated with anything to serve as a negative control (con), and these cultures were cultured at 37° C. for additional 72 hours. Thereafter, 10 μL of MTT solution (5 mg/mL) was added thereto, and the mixture was incubated in a CO2 incubator at 37° C. for 4 hours, the medium was removed, and 100 μL of DMSO was added thereto and shaken for 10 minutes. Finally, the absorbance was measured at a wavelength of 540 nm using a spectrophotometer (Molecular Devices (SpectraMax iD3, CA, USA)).

HOXC13 = HOXC13 expression in HHGMCs (RT-PCR); format: cell-based, human; settings: 500 nM, 5 μM, and 50 μM, 24 hours, FIG. 7
Protocol: as §3, §4

Keratin 14 = Keratin 14 gene expression in HHORSCs (RT-PCR); format: cell-based, human; settings: 500 nM, 5 μM, and 50 μM, 24 hours, FIG. 6
Protocol: as §5, §6

DKK-1 = assay: Expression of hair loss protein DKK-1 induced by DHT in HHFDPCs (Western blot); format: cell-based, human; settings: 500 nM, 5 μM, and 50 μM, DHT 100 nM simultaneously, 24 hours, FIG. 5
Source text: It is known that in hair follicles, dihydrotestosterone (DHT) promotes the expression of Dickkopf-1 (DKK-1), and DKK-1 induced by DHT inhibits the proliferation of keratinocytes in hair follicles and causes their apoptosis, thereby promoting hair loss (J of Invest Dermatolo. 2008, February, 128(2), pp. 262-269). The effect of the peptide prepared in Preparation Example 1 above on the expression level of the hair loss-inducing protein DKK-1 in human hair follicle dermal papilla cells (HHFDPCs) was confirmed by Western blot method.
HHFDPCs were seeded in a 6-well cell culture plate at a density of 4×10^5 cells/well and cultured for 24 hours under mesenchymal stem cell complete media conditions. Then, the medium was replaced with serum-free mesenchymal stem cell medium and cultured for additional 24 hours. The cultured cell culture was treated with 500 nM, 5 μM, and 50 μM of the peptide prepared in Preparation Example 1 above, respectively. treated with 5 μM of finasteride to serve as a positive control, and not treated with anything to serve as a negative control group (con). […] Equal amounts of protein samples were prepared by BCA quantification of cell lysates. […] The resultant was washed 3 times for 15 minutes each with 0.1% PBS-T (0.1% Tween-20 in PBS), treated with ECL solution (GE Healthcare, USA), and detected with a film.

LEF-1 = LEF-1 gene expression in HHFDPCs (RT-PCR); format: cell-based, human; settings: 500 nM, 5 μM, and 50 μM, 24 hours, FIG. 4
Protocol: (§7) The effect of the peptide prepared in Preparation Example 1 above on the expression levels of lymphoid enhancer-binding factor 1 (LEF-1), c-Myc, and Cyclin D1, which are downstream genes of beta-catenin, in human hair follicle dermal papilla cells (HHFDPCs) was determined by the RT-PCR method.
(§8) HHFDPCs were seeded in a 6-well cell culture plate at a density of 4×10^5 cells/well and cultured for 24 hours under mesenchymal stem cell complete media conditions. Then, the medium was replaced with serum free mesenchymal stem cell medium and cultured for additional 24 hours. The cultured cell culture was treated with the peptide prepared in Preparation Example 1 above at 500 nM, 5 μM, and 50 μM, respectively, and treated with 10 ng/mL of rhWnt-3a (recombinant human Wnt-3a protein, R&D systems (MN, USA) to serve as a positive control, and not treated with anything to serve as a negative control (con), and each was cultured at 37° C. for additional 24 hours. After washing each culture with PBS, RNA was isolated therefrom by treatment with 300 μL of eaay blue (Intron, South Korea). The isolated RNA was quantified using Nano drop, and then subjected to cDNA synthesis using a cDNA synthesis kit (Enzynomics, South Korea). […] The PCR reaction product was electrophoresed on a 1.5% agarose gel, and the bands were detected using the Bio-Rad Gel Image System.

Ha3-II = Ha3-II gene expression in HHORSCs (RT-PCR); format: cell-based, human; settings: 500 nM, 5 μM, and 50 μM, 24 hours, FIG. 6
Protocol: as §5, §6

Cyclin D1 = Cyclin D1 gene expression in HHFDPCs (RT-PCR); format: cell-based, human; settings: 500 nM, 5 μM, and 50 μM, 24 hours, FIG. 4
Protocol: as §7, §8

c-Myc = c-Myc gene expression in HHFDPCs (RT-PCR); format: cell-based, human; settings: 500 nM, 5 μM, and 50 μM, 24 hours, FIG. 4
Protocol: as §7, §8

RHVLKRR [peptide of Preparation Example 1]
phosphorylation of Akt (Akt): increased
expression of FOXN1 (FOXN1): increased
phosphorylation of extracellular-regulated kinase (ERK) [1]: increased
expression of Keratin 5 (Keratin 5): increasing
expression of MSX2 (MSX2): increased
beta-catenin activation and movement to the nucleus (beta-catenin): activated and its movement to the nucleus was increased
expression of Keratin 19 (Keratin 19): increasing
proliferation of HHFDPCs compared to the negative control (con) [2]: promoted the proliferation
expression of HOXC13 (HOXC13): increased
expression of Keratin 14 (Keratin 14): increasing
expression of DKK-1 induced by DHT treatment (DKK-1): reduced in a concentration-dependent manner
gene expression of LEF-1 (LEF-1): increased
expression of Ha3-II (Ha3-II): increasing
gene expression of Cyclin D1 (Cyclin D1): increased
gene expression of c-Myc (c-Myc): increased
